Data as given in the supplement of paper PMC13380429.

How the values were obtained:
Conditions in all cases: 72 h
Vero E6 [1] = assay: drug sensitivity score (DSS) for viability; higher = more toxic; extreme values may be limits of the assay
HepG2 [2] = assay: as above
Calu-3 [3] = assay: as above
Caco-2 [4] = assay: as above
U2OS [5] = assay: as above
Vero E6 [6] = assay: relative viability EC50 (midpoint between 100% and the lowest measured viability); higher = less toxic
HepG2 [7] = assay: as above
Calu-3 [8] = assay: as above
Caco-2 [9] = assay: as above
U2OS [10] = assay: as above
Vero E6 [11] = assay: cell viability relative to DMSO; higher = less toxic
HepG2 [12] = assay: as above
Calu-3 [13] = assay: as above
Caco-2 [14] = assay: as above
U2OS [15] = assay: as above

Structure (SMILES)	drug sensitivity score (Vero E6 [1])	drug sensitivity score (HepG2 [2])	drug sensitivity score (Calu-3 [3])	drug sensitivity score (Caco-2 [4])	drug sensitivity score (U2OS [5])	relative viability EC50 (Vero E6 [6]) [µM]	relative viability EC50 (HepG2 [7]) [µM]	relative viability EC50 (Calu-3 [8]) [µM]	relative viability EC50 (Caco-2 [9]) [µM]	relative viability EC50 (U2OS [10]) [µM]	cell viability (Vero E6 [11]; 1 nM) [%]	cell viability (Vero E6 [11]; 10 nM) [%]	cell viability (Vero E6 [11]; 100 nM) [%]	cell viability (Vero E6 [11]; 1000 nM) [%]	cell viability (Vero E6 [11]; 10000 nM) [%]	cell viability (HepG2 [12]; 1 nM) [%]	cell viability (HepG2 [12]; 10 nM) [%]	cell viability (HepG2 [12]; 100 nM) [%]	cell viability (HepG2 [12]; 1000 nM) [%]	cell viability (HepG2 [12]; 10000 nM) [%]	cell viability (Calu-3 [13]; 1 nM) [%]	cell viability (Calu-3 [13]; 10 nM) [%]	cell viability (Calu-3 [13]; 100 nM) [%]	cell viability (Calu-3 [13]; 1000 nM) [%]	cell viability (Calu-3 [13]; 10000 nM) [%]	cell viability (Caco-2 [14]; 1 nM) [%]	cell viability (Caco-2 [14]; 10 nM) [%]	cell viability (Caco-2 [14]; 100 nM) [%]	cell viability (Caco-2 [14]; 1000 nM) [%]	cell viability (Caco-2 [14]; 10000 nM) [%]	cell viability (U2OS [15]; 1 nM) [%]	cell viability (U2OS [15]; 10 nM) [%]	cell viability (U2OS [15]; 100 nM) [%]	cell viability (U2OS [15]; 1000 nM) [%]	cell viability (U2OS [15]; 10000 nM) [%]
C#CCC(Cc1cnc2nc(N)nc(N)c2n1)c1ccc(C(=O)N[C@@H](CCC(=O)O)C(=O)O)cc1 (stereo not given in full) [pralatrexate]	36.7	35.4	0.8	16.7	0	0.0036	0.0038	> 10	0.0164	> 10	98.9	19.2	14.4	16.7	14.2	99.2	22.9	21.3	17.8	17.1	107	102	91.4	88.2	93.6	97	81.8	55.3	49.6	56.2	105	76.8	97.2	90	98.6
CC(=O)N(O)C/C=C/c1cccc(Oc2ccccc2)c1 [BW-A4C]	0	1.4	0	0	0.6	> 10	> 10	> 10	> 10	> 10	107	86.1	109	95.2	102	95.6	99.4	104	84.5	92.9	89.6	105	97.8	114	112	92.5	103	115	92.9	102	95.4	95.5	94.6	98.6	81.8
CNCCc1ccc(O)c(O)c1 [deoxyepinephrine]	0	0	0	0	0	> 10	> 10	> 10	> 10	> 10	107	99.6	100	101	103	97.5	97.2	108	91.8	96.7	94.5	104	95.8	91.6	98.1	95.5	95.8	106	102	89.6	95	97	94.3	101	95.5
CCc1ccc(C(=O)C(C)CN2CCCCC2)cc1 (stereo not given) [eperisone]	0	0	0	0	0	> 10	> 10	> 10	> 10	> 10	105	99.7	106	103	105	107	95.5	95.8	95.4	100	103	93.7	87.5	101	88.8	98.6	106	91.7	102	98.5	93.6	102	96.2	99.9	94.9
Cc1ccc(-c2n[nH]c3c2C(c2cccc(O)c2)N(c2ccc(C(=O)O)cc2)C3=O)cc1 (stereo not given)	0	0	0	0	0	> 10	> 10	> 10	> 10	> 10	102	104	101	95.8	101	111	101	114	93.4	103	92	105	98.6	99.9	88.2	93.4	99.2	87	100	100	90.5	96.2	99.1	99.7	98.1
C=CC(=O)Nc1cccc(Nc2nc(Nc3ccc(NC4CN(CCF)C4)cc3OC)ncc2C(F)(F)F)c1 [CNX-2006]	5.9	3.8	13.3	5.9	4.7	1.97	3.34	0.464	1.51	2.21	102	102	101	88.7	26.7	99.9	110	97.3	102	27.6	96.2	99.4	77.9	44.4	10	105	100	99.1	83.7	38.3	102	98.7	98.8	92.7	37.2
